{"source": "patent EP0415731B1", "about": "“Novel entities for cancer therapy” (THE WELLCOME FOUNDATION LIMITED, priority 1989, dated 1991)", "key": {"[1]": {"system": "Hep G2 cells", "assay": "Growth inhibition of Hep G2 cells (cell number and DNA content, 5 days)", "type": "cell-based", "details": "Homo sapiens, read-out: IC50 (50% growth inhibition)", "protocol": "(§1) The replication-defective, full length, artificial retroviruses containing the AFP/VZV TK chimaera were used to infect a human hepatoma cell line called Hep G2 (ATCC KS 8065). Following infection and selection on 1mg geneticin/ml (Trade mark), the cells were assayed for VZV TK activity. In addition, the cells were incubated in the presence of (^3H) labeled 9-(B-D-arabinofuranosyl)-6-methoxy-9H purine (designated as ara-M in the following tables and figures) with subsequent measurement of ara ATP. Finally, cells were cultured in the presence of the above mentioned compound and the IC50 - (growth inhibition) was determined. Cells infected with no virus or N2 virus act as control samples for these experiments. N2 virus contain no VZV TK genetic material.\nHep G2 cells infected with the replication-defective, full length, artificial retroviruses containing the AFP/VZV TK (pCR78) chimaera were incubated in the presence of varying amounts of 9-(B-D-arabinofuranosyl)-6-methoxy-9H purine for 5 days and growth inhibition determined as measured by cell number and DNA content."}, "[2]": {"system": "Hep G2 cells", "assay": "ara ATP formation from (3H) labelled ara-M in infected Hep G2 cells", "type": "cell-based, human", "details": "Hep G2 cells infected with pCR78 containing viruses, incubated with (3H) labelled compound; Figure 6", "protocol": "as §1\n9-(B-D-arabinofuranosyl)-6-methoxy-9H purine (designated as ara-m) can be selectively monophosphorylated by VZV TK with subsequent anabolism to cytotoxic ara ATP."}}, "note": "Where two headings read alike, the source gives them in different places.", "data": [{"compound": "COc1ncnc2c1ncn2[C@@H]1O[C@H](CO)[C@@H](O)[C@@H]1O", "note": "[9-(β-D-arabinofuranosyl)-6-methoxy-9H-purine]", "values": [{"measurement": "IC50", "setting": "[1]; HepG2, 120 h, Hep G2 cells infected with AFP/VZV TK (pCR78) retrovirus, 5 days", "value": 175, "unit": "µM"}, {"measurement": "IC50", "setting": "[1]; HepG2, 120 h, Hep G2 cells infected with N2 virus (no VZV TK), 5 days", "value": "> 2000", "unit": "µM"}, {"measurement": "IC50", "setting": "[1]; HepG2, 120 h, control Hep G2 cells, no virus, 5 days", "value": "> 2000", "unit": "µM"}, {"measurement": "IC50", "setting": "[1]; HepG2, single cell clones of Hep G2 cells containing the AFP/VZV TK (pCR78) chimaera", "value": "~40", "unit": "µM"}, {"measurement": "(3H) araATP formation", "setting": "[2]", "value": "significant amounts"}]}]}
